This note sets out measurements from ChEMBL document CHEMBL1201862, “PubChem BioAssay data set” (2004).

Holding throughout (assay): growth of human tumour cells (NCI), 48 h
Test [1] relates to SK-OV-3.
Test [2] has as its system BT-549.
Test [3] concerns PC-3.
Test [4] has as its system K562.
In test [5] the test system is ACHN.
The subject of test [6] is HCT-15.
Test [7] has as its system UO-31.
Test [8] relates to KM12.
Test [9] has as its system TK-10.
The test system of test [10] is HOP-92.
The test system of test [11] is OVCAR-4.
Test [12] has as its system M14.
For test [13], the system named is NCI-H460.
Test [14] deals with SF-539.
Test [15] deals with SF-295.
The subject of test [16] is EKVX.
For test [17], the system named is Malme-3M.
Test [18] has as its system SK-MEL-2.
For test [19], the system named is LXFL 529.

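Grown in 96-well plates, cells were treated for 48 hours with each compound at five concentrations. Insufficient inhibition: endpoint recorded as highest concentration tested. Here, GI50 denotes the concentration required for 50% inhibition of growth.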 The source made the active and inactive calls. Rule as the data show it: active = GI50 up to about 1.1 µM and inactive = higher.

Consider `COC(=O)/C=C(/C=C1/C(C#N)=C(N)N(c2ccc(Cl)cc2)C1(C)/C(=C\C(=O)OC)C(=O)OC)C(=O)OC` (configuration not stated), for which the GI50 was 33.7 µM (inactive) in [1]; 15.7 µM (inactive) in [2]; 12.9 µM (inactive) in test [3]; 23.1 µM (inactive) in test [4]; 22.6 µM (inactive) in test [5]; 18.5 µM in test [6]. For the same compound, the GI50 in [7] is 17.9 µM (inactive); in test [8] it was 17.2 µM (inactive); in test [9], 29.4 µM (inactive); in test [10], 5.71 µM (inactive); in test [11] it was 18.9 µM (inactive); in test [12] it was 19.5 µM (inactive). The GI50 is 19.5 µM (inactive) in test [13]; 15.4 µM (inactive) in [14]; 22.8 µM (inactive) in test [15]; 43.9 µM (inactive) in test [16]; 25.1 µM (inactive) in test [17]; 32.1 µM (inactive) in [18].

Regarding `COc1cc(/C=C2/CCCc3ccccc3C2=O)cc(OC)c1OC`, the GI50 in test [1] was 25.5 µM (inactive); in test [2], 13.8 µM (inactive); in test [3], 10.1 µM (inactive); in [4], 2.65 µM (inactive); in [5] it was 15.8 µM (inactive); in test [6], 12.6 µM. In addition, the GI50 was 14.6 µM (inactive) in test [7]; 11.7 µM (inactive) in test [8]; 22.5 µM (inactive) in [9]; 14.8 µM (inactive) in test [10]; 17.2 µM (inactive) in test [11]; 18.7 µM (inactive) in [12]. In addition, the GI50 in test [13] was 20.8 µM (inactive); in test [14], 18.6 µM (inactive); in test [15] it was 18.4 µM (inactive); in test [16] it was 17.6 µM (inactive); in test [17] it was 12.7 µM (inactive); in test [18], 20.6 µM (inactive).

With `Cn1cccc1-c1ccc(-c2ccc(CO)[se]2)[se]1`, the GI50 is 22.1 µM (inactive) in test [1]; 20.2 µM (inactive) in test [2]; 24.5 µM (inactive) in test [3]; 0.986 µM (active) in test [4]; 38.9 µM (inactive) in test [5]; 12.6 µM in test [6]. Further, the GI50 is 35.7 µM (inactive) in test [7]; 8.99 µM (inactive) in [8]; 28.1 µM (inactive) in test [9]; > 100 µM (inactive) in test [10]; 2.61 µM (inactive) in test [11]; 16.1 µM (inactive) in [12]. In addition, the GI50 is 10.9 µM (inactive) in [13]; 11.5 µM (inactive) in test [14]; 10.7 µM (inactive) in test [15]; 61.1 µM (inactive) in test [16]; 66.1 µM (inactive) in test [17]; 28.8 µM (inactive) in test [18].

For the compound `O=C(O)c1cc(/N=C/c2ccccc2O)cc(C(=O)O)c1`, the GI50 was > 100 µM (inactive) in test [1]; > 100 µM (inactive) in [2]; > 100 µM (inactive) in [3]; > 100 µM (inactive) in test [4]; > 100 µM (inactive) in [5]; over 100 µM in test [6]. Besides, the GI50 in test [7], in test [8], in [9], in test [10], in test [11] and in test [12] was > 100 µM (inactive) throughout. Also, the GI50 in test [13], in test [14], in test [15], in [16], in test [17] and in test [18] was > 100 µM (inactive) throughout.

As for `COc1nc2ncc([C@@H](O)[C@H](O)CO)nc2c(=O)n1C`, the GI50 in test [1] was > 100 µM (inactive); in test [2], > 100 µM (inactive); in test [3] it was > 100 µM (inactive); in test [4], > 100 µM (inactive); in test [5], > 100 µM (inactive); in test [6] it was over 100 µM. In addition, the GI50 in [7], in test [8], in [9], in [10], in test [11] and in test [12] was > 100 µM (inactive) each time. Besides, the GI50 in [13], in test [14], in [15], in [16], in test [17] and in [18] was > 100 µM (inactive) in each case.

In the case of `c1ccc(COC[C@H]2C3OCC([C@H](OCc4ccccc4)[C@H]3OCc3ccccc3)N2Cc2ccccc2)cc1` (some centres not stated), the GI50 in test [1] was > 56.4 µM (inactive); in [2], > 53.3 µM (inactive); in [3], 20.2 µM (inactive); in test [4] it was 12.4 µM (inactive); in test [5], > 56.2 µM (inactive); in test [6], over 45.8 µM. For the same compound, the GI50 in test [7] is > 46.1 µM (inactive); in test [8], 25.3 µM (inactive); in [9] it was > 52.6 µM (inactive); in test [10], > 57.1 µM (inactive); in test [11], 40 µM (inactive); in [12], > 54 µM (inactive). Moreover, the GI50 in [13] is > 56.4 µM (inactive); in test [14], > 59 µM (inactive); in test [15], > 51.2 µM (inactive); in test [16], > 46.7 µM (inactive); in test [17], 27.9 µM (inactive); in test [18], > 49.2 µM (inactive).

Regarding `C=C1C(=O)[C@@]23CC[C@@H]4[C@@]5(C)CCC[C@@]4(OC5=O)[C@@]2(C)CC[C@@H]1C3`, the GI50 is 9.23 µM (inactive) in test [1]; 1.3 µM (inactive) in test [2]; 1.76 µM (inactive) in test [3]; 0.667 µM (active) in [4]; 1.24 µM (inactive) in test [5]; 0.67 µM in test [6]. The GI50 in test [7] was 1.9 µM (inactive); in test [8] it was 2.59 µM (inactive); in test [9], 1.11 µM (active); in [10], 4.48 µM (inactive); in [11], 2.38 µM (inactive); in test [12], 2.17 µM (inactive). Further, the GI50 in [13] was 1.41 µM (inactive); in test [14], 2.12 µM (inactive); in test [15] it was 5.06 µM (inactive); in test [16], 3.15 µM (inactive); in test [17], 1.6 µM (inactive); in test [18] it was 2.13 µM (inactive).

Take `[O-][S+]1c2ccccc2N=C(c2ccc3ccccc3c2)CC1c1ccccc1F` (configuration not stated): the GI50 in test [1] was > 100 µM (inactive); in test [4], 78.2 µM (inactive); in test [5], > 100 µM (inactive); in [6], over 100 µM; in [7], > 100 µM (inactive); in [8] it was > 100 µM (inactive). The GI50 in test [9], in test [11], in [19], in test [12], in test [13] and in test [14] was > 100 µM (inactive) each time. Moreover, the GI50 in test [15], in [16], in [17] and in [18] was > 100 µM (inactive) each time.
